Source: PMC13267113 (npj Drug Discovery, 2025)

Experiments:
[1] = biological target: T1, scavenger receptor class B member 1 (SCARB1) (Homo sapiens, UniProt Q8WTV0); experiment: Affinity-based protein profiling (AfBPP), SCARB1; format: binding; conditions: 12.5 µM pre-treatment before Cysto-354 (2.5 µM), HepG2, n = 4
T1 construct: endogenous in cells; host or cells: HepG2
T1 sequence (Q8WTV0 1-509 isoform Q8WTV0-2): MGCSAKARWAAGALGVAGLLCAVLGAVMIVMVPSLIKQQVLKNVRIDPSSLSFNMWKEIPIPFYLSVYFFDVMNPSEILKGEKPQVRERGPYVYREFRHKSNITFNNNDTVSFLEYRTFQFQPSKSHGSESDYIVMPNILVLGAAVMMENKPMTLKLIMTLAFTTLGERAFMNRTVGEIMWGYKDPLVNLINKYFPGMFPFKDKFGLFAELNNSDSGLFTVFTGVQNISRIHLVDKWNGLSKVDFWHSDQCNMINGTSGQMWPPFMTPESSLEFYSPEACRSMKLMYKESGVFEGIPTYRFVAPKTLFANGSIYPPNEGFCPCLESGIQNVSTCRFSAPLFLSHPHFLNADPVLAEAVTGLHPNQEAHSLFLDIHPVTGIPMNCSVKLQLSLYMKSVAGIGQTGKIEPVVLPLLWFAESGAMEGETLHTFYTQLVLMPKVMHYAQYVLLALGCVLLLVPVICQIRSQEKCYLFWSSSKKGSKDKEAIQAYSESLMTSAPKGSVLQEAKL
Method: Cells were seeded in 100 mm cell-bind petri dishes with a concentration of 2.8 × 10^6 cells per sample and incubated (37 °C, 5% CO2) for 3 days to reach ~80% confluence. Cells were washed with warm PBS prior to compound addition. Compound solutions as well as the DMSO control were generally added as freshly prepared solutions in pre-warmed, serum-free culture medium. Affinity-based proteome profiling was performed by treating the respective cell line with Cysto-354 (2.5 µM) for 3 h. For competition samples, cells were treated with CN-861-2 (12.5 µM) for 1 h, prior to addition of photo-probe Cysto-354 (2.5 µM) for 3 h incubation time. Control samples were treated with DMSO. Afterwards, cells were UV-irradiated for 10 min on ice, scraped off and transferred to Eppendorf tubes for washing with 1 mL cold PBS (centrifuge 5 min, 500g, 4 °C). The cell pellet was stored at −80 °C until lysis. Further sample preparation was done as previously described. […]
Peptides were measured and online-separated using an UltiMate 3000 nano HPLC system (Dionex) coupled to a Bruker timsTOF Pro mass spectrometer via a CaptiveSpray nano-electrospray ion source and Sonation column oven. […]
MS raw data was analyzed using MaxQuant software (version 2.0.3.0) and peptides were searched against Uniprot database for Homo sapiens (taxon identifier: 9606, downloaded on 11.03.2022, canonical, reviewed). […]

[2] = Mouse plasma stability; format: in vitro ADME; conditions: read-out: Mouse plasma t1/2
[3] = test system: U-2 OS cells; experiment: Mitochondrial superoxide formation (MitoSOX Red); format: cell-based, human; conditions: n = 6
Method: CYS was tested for its potential to induce oxidative stress in U-2 OS cells. Therefore, 120 µL of a cell suspension in McCoy’s (+10% FBS) containing 5 × 10^4 cells/mL were seeded into black 96-well imaging plate (BD Falcon). The plates were incubated for two days (37 °C, 5% CO2) until the cells reached approximately 70% confluence. Subsequently, the cells were washed with HBSS buffer, prior to adding CYS (20 µM) and the ROS inducer menadione (50 µM) as positive control, along with the staining solution (HBSS, calcium, magnesium, 5 µM MitoSOX red and 10 µg/mL Hoechst (Thermo)). To check for ROS protective properties, menadione (50 µM) was added directly to the staining solution. […] Afterwards, the cells were washed twice with HBSS. The cells were imaged using an automated fluorescence microscope (Celldiscoverer 7, Zeiss) (excitation: […]) to analyze the fluorescence intensity of the superoxide tracker MitoSOX red. The experiment was carried out with six replicates per condition. Quantification was done by high-content image analysis using the ZEN software (version 3.4, blue edition, Zeiss). Data presentation was done using GraphPad Prism (version 10.0.3) with ordinary one-way ANOVA including multiple comparisons to the control group for statistical analysis of the sample without ROS induction via menadione in the staining solution. Multiple unpaired t test was used to compare samples for ROS protective properties, which were incubated with menadione in the staining solution.

In the case of `CO[C@H](C(N)=O)[C@H](NC(=O)c1ccc(NC(=O)c2ccc(C#N)cc2)cc1)C(=O)Nc1ccc(C(=O)Nc2ccc(C(=O)Nc3ccc(C(=O)O)cc3)c(O)c2OC(C)C)cc1` [CN-861-2], the “competition of SCARB1 enrichment” value [1] is reported as “significant competition”, the half-life [2] is reported as > 4 h and the “basal superoxide radical levels vs DMSO control” value ([3]; 20 µM, MitoSOX Red, no menadione) is reported as “decrease of superoxide radical levels”. For the same compound, the “menadione-induced superoxide formation on co-treatment” value ([3]; CYS 20 µM + menadione 50 µM) was “slight yet statistically significant increase in superoxide production”.
